Test results published in patent US20240270821A1, “GIP/GLP1/GCG TRI-RECEPTOR AGONISTS AND USES THEREOF” (priority 2023, published 2024).
Where two headings read alike, the source gives them in different places. Starred links: 1 amine or outer side, 2 acyl side, 3 side chain; linkers in the order of their positions; H or OH if unused. Non-standard residues stand in square brackets, D forms with d. Groups on a side chain read outwards from the residue. No end group written: not given here. *: point of attachment. C18 diacid = O=C(O)CCCCCCCCCCCCCCCCC(=O)*; αMePhe(2-F) = C[C@](N)(Cc1ccccc1F)C(=O)O; γGlu = O=C(O)[C@H](CCC(=O)[*:2])N[*:1]; αMe4Pal = C[C@](N)(Cc1ccncc1)C(=O)O; αMeY = C[C@](N)(Cc1ccc(O)cc1)C(=O)O; 4Pal = N[C@@H](Cc1ccncc1)C(=O)O; αMeL = CC(C)C[C@](C)(N)C(=O)O; αMeS = C[C@](N)(CO)C(=O)O; Orn = NCCC[C@H](N)C(=O)O; AEEA = NCCOCCOCC(=O)O; Aib = CC(C)(N)C(=O)O

Experiments:
Type in all cases: cell-based
[1] = molecular target: T1, hGIPR (Homo sapiens, UniProt P48546); assay: Functional cAMP activity in the presence of 1% HSA; details: read-out: cAMP Rel EC50, hGIPR
T1 sequence (P48546 22-466): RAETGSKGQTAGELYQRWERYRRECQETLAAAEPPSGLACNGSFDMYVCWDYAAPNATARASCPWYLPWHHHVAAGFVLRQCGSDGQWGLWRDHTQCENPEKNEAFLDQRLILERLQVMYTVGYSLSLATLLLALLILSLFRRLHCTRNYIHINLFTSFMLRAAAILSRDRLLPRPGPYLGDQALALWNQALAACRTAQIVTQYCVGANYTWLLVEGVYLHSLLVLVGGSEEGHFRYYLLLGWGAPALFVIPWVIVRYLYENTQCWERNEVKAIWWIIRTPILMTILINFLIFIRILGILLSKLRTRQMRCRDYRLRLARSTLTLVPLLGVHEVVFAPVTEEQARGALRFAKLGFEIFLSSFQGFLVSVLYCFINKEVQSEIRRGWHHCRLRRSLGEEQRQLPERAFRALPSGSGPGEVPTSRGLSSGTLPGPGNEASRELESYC

[2] = molecular target: T2, hGLP-1R (Homo sapiens, UniProt P43220); assay: Functional cAMP activity in the presence of 1% HSA; details: read-out: cAMP Rel EC50, hGLP-1R
[3] = molecular target: human GcgR (Homo sapiens, UniProt P47871); assay: Functional cAMP activity in the presence of 1% HSA; details: read-out: cAMP Rel EC50, hGcgR
[4] = molecular target: T1, hGIPR; assay: Functional cAMP activation in the presence of 0.1% casein (no HSA); details: read-out: Relative cAMP EC50, hGIPR;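 on Relative cAMP EC50, hGIPR: intracellular cAMP rise after 30 min at 37 °C read by HTRF against a standard curve, scaled between buffer alone (0%) and top control ligand concentration (100%), four-parameter fit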;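 on Relative cAMP EC50, hGLP-1R: intracellular cAMP rise after 30 min at 37 °C read by HTRF, normalized between buffer only (0%) and maximal control ligand (100%), four-parameter variable-slope fit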;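 on Relative cAMP EC50, hGcgR: intracellular cAMP rise after 30 min at 37 °C, read by HTRF against a cAMP standard curve, scaled from buffer only (0%) to maximal control ligand response (100%)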
[5] = molecular target: T2, hGLP-1R; assay: as above; details: read-out: Relative cAMP EC50, hGLP-1R
[6] = molecular target: hGcgR (Homo sapiens, UniProt P47871); assay: as above; details: read-out: Relative cAMP EC50, hGcgR;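 further: intracellular cAMP rise after 30 min at 37 °C, read by HTRF against a cAMP standard curve, scaled from buffer only (0%) to maximal control ligand response (100%)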
[7] = in the presence of 0.1% casein (no HSA), geometric mean
[8] = HEK-293 clonal cell line, 1% HSA, geometric mean of relative EC50
[9] = in the presence of 0.1% casein (no HSA), geometric mean of relative EC50
[10] = 0.1% casein, no HSA, geometric mean

T2 sequence (P43220 24-463): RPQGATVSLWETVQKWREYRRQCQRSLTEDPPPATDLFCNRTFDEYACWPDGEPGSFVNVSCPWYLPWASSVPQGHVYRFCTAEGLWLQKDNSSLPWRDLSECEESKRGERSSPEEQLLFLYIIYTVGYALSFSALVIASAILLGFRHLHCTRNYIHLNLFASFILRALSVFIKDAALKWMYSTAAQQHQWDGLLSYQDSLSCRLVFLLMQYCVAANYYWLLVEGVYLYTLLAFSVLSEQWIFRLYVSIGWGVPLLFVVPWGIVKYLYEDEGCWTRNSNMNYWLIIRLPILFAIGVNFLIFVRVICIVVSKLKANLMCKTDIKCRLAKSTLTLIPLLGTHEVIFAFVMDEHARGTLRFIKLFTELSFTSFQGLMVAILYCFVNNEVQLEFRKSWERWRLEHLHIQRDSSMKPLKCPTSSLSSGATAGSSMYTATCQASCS
Chain of human GcgR (P47871 26-477): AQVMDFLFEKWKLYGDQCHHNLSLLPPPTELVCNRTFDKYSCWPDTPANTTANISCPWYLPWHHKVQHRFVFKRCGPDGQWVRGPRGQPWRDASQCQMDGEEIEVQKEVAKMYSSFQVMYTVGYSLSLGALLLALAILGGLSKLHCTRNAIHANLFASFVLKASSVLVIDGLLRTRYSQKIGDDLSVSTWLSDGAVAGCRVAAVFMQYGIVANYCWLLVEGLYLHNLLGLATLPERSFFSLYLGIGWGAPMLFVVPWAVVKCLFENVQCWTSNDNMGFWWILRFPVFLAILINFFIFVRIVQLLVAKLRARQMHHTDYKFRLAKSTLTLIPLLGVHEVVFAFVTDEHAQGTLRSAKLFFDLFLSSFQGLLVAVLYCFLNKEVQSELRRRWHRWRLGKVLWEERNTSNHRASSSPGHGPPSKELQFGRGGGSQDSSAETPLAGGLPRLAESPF
Chain of hGcgR (P47871 26-477): as above

| Substance | EC50 [1] [nM] | EC50 [2] [nM] | EC50 [3] [nM] | EC50 [4] [nM] | EC50 [5] [nM] | EC50 [6] [nM] | also measured |
| --- | --- | --- | --- | --- | --- | --- | --- |
| H-Y[Aib]QGTFTSD[4Pal]S[Orn][αMeL]LD[Orn]K([γGlu-γGlu-C18 diacid])AQ[αMe4Pal][Orn]FIEYLLAGGPSSGAPPPSGSEE-NH2 [Example 1004] | 35.4 | 973 | 237 | – | – | – | EC50 [4, 7]: 0.519 nM; EC50 [5, 7]: 9.34 nM; EC50 [6, 7]: 2.67 nM |
| H-Y[Aib]QGTFTSD[4Pal]S[Orn][αMeL]LDKK([γGlu-γGlu-C18 diacid])AQ[αMe4Pal]AFIEYLIAGGESSGAPPPSGSEE-NH2 [Example 964] | 21.4 | 267 | 324 | – | – | – | EC50 [4, 7]: 0.288 nM; EC50 [5, 7]: 2.67 nM; EC50 [6, 7]: 2.75 nM |
| H-Y[Aib]QGT[αMePhe(2-F)]TSDYSI[αMeL]LDKK([AEEA-γGlu-C18 diacid])AQ[Aib]AFIEYLLETGPSSGAPPPSEG-NH2 [Example 417] | – | – | – | – | – | – | EC50 [1, 8]: 4.46 nM; EC50 [2, 8]: 67 nM; EC50 [3, 8]: 386 nM; EC50 [4, 9]: 0.0144 nM; EC50 [5, 9]: 0.328 nM; EC50 [6, 9]: 2.83 nM |
| Y[Aib]QGT[αMePhe(2-F)]TSD[4Pal]SI[αMeL]LD[Orn]K([AEEA-γGlu-C18 diacid])AQ[αMe4Pal][Orn]FI[dE][αMeY]LIEGGPSSGDPPPEAE-NH2 [Example 728] | 1.45 | 26.7 | 298 | 0.0116 | 0.277 | 2.45 | – |
| H-Y[Aib]QGT[αMePhe(2-F)]TSD[4Pal][αMeS]I[αMeL]LD[Orn]K([AEEA-γGlu-C18 diacid])AQ[αMe4Pal]EFI[dE][αMeY]LIEGGPSSGAPPPSGGGEE-NH2 [Example 1214] | 0.771 | 50 | 210 | – | – | – | EC50 [4, 10]: 0.00851 nM; EC50 [5, 10]: 0.55 nM; EC50 [6, 10]: 1.85 nM |
| H-Y[Aib]QGT[αMePhe(2-F)]TSD[4Pal]SILLDKK([γGlu-γGlu-C18 diacid])AQ[Aib]AFIE[αMeY]LEEGGPSSGAPPPSGEGE-NH2 [Example 667] | 1.46 | 33 | 215 | 0.0217 | 0.42 | 2.34 | – |

Now from value to substance, other results behind:

| EC50 [1] [nM] | EC50 [2] [nM] | EC50 [3] [nM] | EC50 [4] [nM] | EC50 [5] [nM] | EC50 [6] [nM] | Substance | also measured |
| --- | --- | --- | --- | --- | --- | --- | --- |
| 0.595 | 21.3 | 157 | 0.00903 | 0.277 | 2.41 | H-Y[Aib]QGT[αMePhe(2-F)]TSD[4Pal]SI[αMeL]LD[Orn]K([γGlu-γGlu-C18 diacid])AQ[αMe4Pal][Orn]FI[dE][αMeY]LIEGGPSSGEPPPEGTE-NH2 [Example 687] | – |
| 11.8 | 98.7 | 1010 | 0.132 | 1.01 | 8.3 | H-Y[Aib]QGT[αMePhe(2-F)]TSD[4Pal][αMeS]I[αMeL]LD[Orn]K([Glu-γGlu-C18 diacid])AQ[Aib][Orn]FI[dE][αMeY]LSEGGPSSGEPPPSGTE-NH2 [Example 563] | – |
| 0.831 | 45.4 | 167 | – | – | – | Y[Aib]QGT[αMePhe(2-F)]TSD[4Pal][αMeS]I[αMeL]LD[Orn]K([AEEA-γGlu-C18 diacid])AQ[αMe4Pal]EFI[dE][αMeY]LIEGGPSSGEPPPESE-NH2 [Example 1147] | EC50 [4, 7]: 0.00753 nM; EC50 [5, 7]: 0.347 nM; EC50 [6, 7]: 1.17 nM |
| 1.43 | 27 | 276 | 0.0113 | 0.288 | 2.11 | Y[Aib]QGT[αMePhe(2-F)]TSD[4Pal]SI[αMeL]LD[Orn]K([AEEA-γGlu-C18 diacid])AQ[αMe4Pal][Orn]FI[dE][αMeY]LIEGGPSSGDPPPESE-NH2 [Example 729] | – |
| 12.4 | 84.4 | 697 | 0.199 | 1.12 | 4.34 | Y[Aib]QGT[αMePhe(2-F)]TSD[4Pal][αMeS]I[αMeL]LD[Orn]K([γGlu-γGlu-C18 diacid])AQ[Aib][Orn]FI[dE][αMeY]LSEGGPSSGEPPPSGSEE-NH2 [Example 569] | – |
| 0.824 | 20.6 | 124 | 0.0112 | 0.252 | 1.53 | H-Y[Aib]QGT[αMePhe(2-F)]TSD[4Pal][αMeS]I[αMeL]LD[Orn]K([AEEA-γGlu-C18 diacid])AQ[Aib][Orn]FI[dE][αMeY]LIEGGPSSGEPPPEGE-NH2 [Example 698] | – |
